Reference: patent publication US20230365576A1, “BRM Targeting Compounds And Associated Methods Of Use” (Prelude Therapeutics Incorporated, priority 2022, published 2023)

Columns and labels:
[1] = target: T1, SMARCA2 (Homo sapiens, UniProt P51531); test: SMARCA2 HiBiT degradation assay in HeLa cells; type: cell-based; conditions: 18 hours; for DC50: read-out: SMARCA2 IC50; for Dmax: HeLa
T1 construct: SMARCA2-HiBiT knock-in Hela monoclonal cell (CS302366); host or cells: HeLa (CRISPR HiBiT knock-in monoclonal line, heterozygous)
Method in brief: (§1)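 Degradation measured as HiBiT luminescence (Nano-Glo lytic reagent) after 18 h compound exposure at 37° C. Cells were HeLa clones carrying heterozygous HiBiT tags on SMARCA2 or SMARCA4, 2500 per well; compounds at 3-fold serial dilution from 10 μM.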

[2] = target: T2, SMARCA4 (Homo sapiens, UniProt P51532); test: SMARCA4 HiBiT degradation assay in HeLa cells; type: cell-based; conditions: 18 hours; for Dmax: HeLa
T2 construct: SMARCA4-HiBiT knock-in Hela monoclonal cell (CS3023226) were purchased from Promega; host or cells: HeLa (CRISPR HiBiT knock-in monoclonal line, heterozygous)
Method in brief: as §1

T1 sequence (P51531 whole entry): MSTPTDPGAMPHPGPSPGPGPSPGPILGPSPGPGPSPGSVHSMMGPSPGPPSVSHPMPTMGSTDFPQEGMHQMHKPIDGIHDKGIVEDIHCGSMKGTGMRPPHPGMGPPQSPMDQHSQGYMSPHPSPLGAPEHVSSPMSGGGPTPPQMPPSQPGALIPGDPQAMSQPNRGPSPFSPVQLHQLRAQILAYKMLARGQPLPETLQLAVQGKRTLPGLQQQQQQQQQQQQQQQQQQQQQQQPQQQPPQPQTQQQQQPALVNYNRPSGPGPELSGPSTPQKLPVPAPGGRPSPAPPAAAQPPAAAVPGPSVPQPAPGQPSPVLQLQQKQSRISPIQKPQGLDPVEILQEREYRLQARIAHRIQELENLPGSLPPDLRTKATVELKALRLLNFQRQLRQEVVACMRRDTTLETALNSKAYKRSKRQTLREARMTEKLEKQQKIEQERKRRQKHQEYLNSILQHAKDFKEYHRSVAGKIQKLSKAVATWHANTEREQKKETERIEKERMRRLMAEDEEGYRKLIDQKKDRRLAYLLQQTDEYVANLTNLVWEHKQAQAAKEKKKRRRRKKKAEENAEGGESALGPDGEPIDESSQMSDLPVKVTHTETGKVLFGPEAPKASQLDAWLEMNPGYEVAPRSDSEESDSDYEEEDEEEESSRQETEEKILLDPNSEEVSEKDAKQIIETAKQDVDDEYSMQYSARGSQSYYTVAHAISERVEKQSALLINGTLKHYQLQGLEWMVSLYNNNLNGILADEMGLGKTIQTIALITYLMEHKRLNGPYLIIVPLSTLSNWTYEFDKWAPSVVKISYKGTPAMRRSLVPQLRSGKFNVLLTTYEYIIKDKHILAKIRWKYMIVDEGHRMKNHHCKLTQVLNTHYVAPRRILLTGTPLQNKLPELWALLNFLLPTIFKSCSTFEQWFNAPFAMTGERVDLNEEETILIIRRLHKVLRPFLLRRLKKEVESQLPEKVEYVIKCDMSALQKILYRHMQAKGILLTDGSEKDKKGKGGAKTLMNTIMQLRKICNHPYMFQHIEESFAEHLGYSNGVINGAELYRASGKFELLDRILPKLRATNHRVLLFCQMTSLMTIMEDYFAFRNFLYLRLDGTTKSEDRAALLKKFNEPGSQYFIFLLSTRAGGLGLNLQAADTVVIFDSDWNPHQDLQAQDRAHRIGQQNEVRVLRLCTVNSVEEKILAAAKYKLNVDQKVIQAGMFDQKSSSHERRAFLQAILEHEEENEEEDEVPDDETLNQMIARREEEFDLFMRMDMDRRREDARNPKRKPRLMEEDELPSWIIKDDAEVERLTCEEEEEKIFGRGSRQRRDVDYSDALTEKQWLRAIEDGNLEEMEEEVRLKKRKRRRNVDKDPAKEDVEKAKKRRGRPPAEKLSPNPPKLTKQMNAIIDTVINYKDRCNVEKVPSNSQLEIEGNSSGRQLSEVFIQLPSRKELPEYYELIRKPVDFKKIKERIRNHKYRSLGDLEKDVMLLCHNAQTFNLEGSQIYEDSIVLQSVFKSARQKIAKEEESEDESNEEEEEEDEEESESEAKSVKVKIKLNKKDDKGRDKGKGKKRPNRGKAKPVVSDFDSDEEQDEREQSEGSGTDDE
T2 sequence (P51532 whole entry): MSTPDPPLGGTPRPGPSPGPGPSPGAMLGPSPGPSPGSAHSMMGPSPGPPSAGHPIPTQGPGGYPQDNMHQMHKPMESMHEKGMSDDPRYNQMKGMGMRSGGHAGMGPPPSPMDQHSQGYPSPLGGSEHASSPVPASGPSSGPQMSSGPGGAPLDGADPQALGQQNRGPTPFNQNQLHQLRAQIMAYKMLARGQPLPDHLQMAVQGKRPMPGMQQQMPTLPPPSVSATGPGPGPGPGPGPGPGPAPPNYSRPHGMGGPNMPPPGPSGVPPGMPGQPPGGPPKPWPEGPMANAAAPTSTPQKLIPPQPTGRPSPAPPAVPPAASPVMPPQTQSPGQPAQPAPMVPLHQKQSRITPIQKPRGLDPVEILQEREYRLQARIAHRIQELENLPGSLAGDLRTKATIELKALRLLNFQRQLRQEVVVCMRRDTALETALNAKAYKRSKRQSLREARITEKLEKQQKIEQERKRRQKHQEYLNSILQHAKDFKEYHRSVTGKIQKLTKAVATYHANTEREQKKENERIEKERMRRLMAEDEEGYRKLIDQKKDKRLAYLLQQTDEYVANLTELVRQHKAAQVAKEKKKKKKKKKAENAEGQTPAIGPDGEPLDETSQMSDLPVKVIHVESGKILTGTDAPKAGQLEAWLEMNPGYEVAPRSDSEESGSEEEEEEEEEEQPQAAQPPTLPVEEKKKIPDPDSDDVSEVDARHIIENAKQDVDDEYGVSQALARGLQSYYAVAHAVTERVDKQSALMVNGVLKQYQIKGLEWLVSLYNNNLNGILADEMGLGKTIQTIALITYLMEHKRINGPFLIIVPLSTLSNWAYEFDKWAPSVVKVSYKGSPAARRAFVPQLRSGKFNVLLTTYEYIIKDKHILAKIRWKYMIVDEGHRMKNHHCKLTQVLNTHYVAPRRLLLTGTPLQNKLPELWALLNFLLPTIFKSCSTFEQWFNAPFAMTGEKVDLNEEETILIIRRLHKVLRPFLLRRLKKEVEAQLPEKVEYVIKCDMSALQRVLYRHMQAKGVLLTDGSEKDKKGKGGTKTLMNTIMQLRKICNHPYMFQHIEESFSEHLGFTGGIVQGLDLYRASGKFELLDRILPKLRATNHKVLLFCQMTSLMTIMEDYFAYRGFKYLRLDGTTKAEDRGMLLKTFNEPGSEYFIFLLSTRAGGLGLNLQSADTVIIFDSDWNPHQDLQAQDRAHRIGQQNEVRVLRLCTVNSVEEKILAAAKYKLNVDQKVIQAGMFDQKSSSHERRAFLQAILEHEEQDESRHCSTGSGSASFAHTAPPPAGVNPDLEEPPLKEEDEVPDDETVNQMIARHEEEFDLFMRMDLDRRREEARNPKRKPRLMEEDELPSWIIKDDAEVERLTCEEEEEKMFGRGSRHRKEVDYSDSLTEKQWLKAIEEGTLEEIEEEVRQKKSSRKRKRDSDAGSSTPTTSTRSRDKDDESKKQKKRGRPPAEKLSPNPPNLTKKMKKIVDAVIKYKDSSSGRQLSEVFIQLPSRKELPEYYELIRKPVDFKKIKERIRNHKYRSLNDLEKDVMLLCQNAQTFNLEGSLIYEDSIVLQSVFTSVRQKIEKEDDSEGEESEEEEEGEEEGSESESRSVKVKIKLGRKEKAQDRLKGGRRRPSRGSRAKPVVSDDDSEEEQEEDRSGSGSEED

Row | DC50 [1] | Dmax [1] | DC50 [2] | Dmax [2] | SMARCA2 DMax % [1] | SMARCA4 DMax % [2] | Structure (SMILES)
1 | < 100 nM | > 75% | 100 to 1000 nM | < 50% |  |  | CC1(C)CN(CC2CCN(c3ccc4c(c3)C(=O)N([C@H]3CCC(=O)NC3=O)C4)CC2)CCN1C(=O)N1CCN2c3cc(-c4cccc(F)c4O)nnc3NCC2(CF)C1 (single isomer, unassigned) [Example 89]
2 | < 100 nM |  | > 1000 nM |  | A (A=Dmax>75%) | C (C=Dmax<50%) | CC1(C)CN(CC2CCN(c3ccc4c(c3)C(=O)N([C@H]3CCC(=O)NC3=O)C4)CC2)CCN1C(=O)N1CCN2c3cc(-c4cccc(F)c4O)nnc3NCC2(CF)C1 (single isomer, unassigned) [Example 90]
3 | < 100 nM | > 75% | 100 to 1000 nM | < 50% |  |  | C[C@@H]1CN(CC2CCN(c3ccc4c(c3)C(=O)N(C3CCC(=O)NC3=O)C4)CC2)[C@@H](C)CN1C(=O)N1CCN2c3cc(-c4cccc(F)c4O)nnc3NCC2(C)C1 (single isomer, unassigned) [Example 91]
4 | < 100 nM | > 75% | > 1000 nM | < 50% |  |  | C[C@@H]1CN(CC2CCN(c3ccc4c(c3)C(=O)N(C3CCC(=O)NC3=O)C4)CC2)C[C@H](C)N1C(=O)N1CCN2c3cc(-c4cccc(Cl)c4O)nnc3NCC2(C)C1 (single isomer, unassigned) [Example 92]
5 | < 100 nM | > 75% | > 1000 nM | < 50% |  |  | COCC12CNc3nnc(-c4cccc(F)c4O)cc3N1CCN(C(=O)N1CCN(CC3CCN(c4ccc5c(c4)C(=O)N([C@H]4CCC(=O)NC4=O)C5)CC3)CC1(C)C)C2 (single isomer, unassigned) [Example 93]
6 | < 100 nM | > 75% | < 100 nM | > 75% |  |  | C[C@@H]1CN(CC2CCN(c3ccc4c(c3)C(=O)N([C@H]3CCC(=O)NC3=O)C4)CC2)C[C@H](C)N1C(=O)N1CCN2c3cc(-c4cccc(F)c4O)nnc3NCC2(C(F)(F)F)C1 (single isomer, unassigned) [Example 95]
7 | < 100 nM | > 75% | < 100 nM |  |  | A (A=Dmax>75%) | C[C@@H]1CN(CC2CCN(c3ccc4c(c3)C(=O)N([C@H]3CCC(=O)NC3=O)C4)CC2)C[C@@H](C)N1C(=O)N1CCN2c3cc(-c4cccc(F)c4O)nnc3NCC2(C(F)(F)F)C1 (single isomer, unassigned) [Example 96]
8 | < 100 nM |  | 100 to 1000 nM |  | A (A=Dmax>75%) | C (C=Dmax<50%) | C[C@@H]1CN(CC2CCN(c3ccc4c(c3)C(=O)N([C@H]3CCC(=O)NC3=O)C4)CC2)C[C@@H](C)N1C(=O)N1CCN2c3cc(-c4cccc(F)c4O)nnc3NCC2(C(F)(F)F)C1 (single isomer, unassigned) [Example 97]
9 | < 100 nM | > 75% | < 100 nM |  |  | A (A=Dmax>75%) | C[C@@H]1C[C@H](CN2CCN(c3ccc4c(c3)C(=O)N([C@H]3CCC(=O)NC3=O)C4)CC2)C[C@H](C)N1C(=O)N1CCN2c3cc(-c4cccc(F)c4O)nnc3NCC2(C(F)(F)F)C1 (single isomer, unassigned) [Example 98]
10 | < 100 nM |  | < 100 nM |  | A (A=Dmax>75%) | B (B=50%<Dmax≤75%) | C[C@@H]1C[C@H](CN2CCN(c3ccc4c(c3)C(=O)N([C@H]3CCC(=O)NC3=O)C4)CC2)C[C@H](C)N1C(=O)N1CCN2c3cc(-c4cccc(F)c4O)nnc3NCC2(C(F)(F)F)C1 (single isomer, unassigned) [Example 99]
11 | < 100 nM |  | < 100 nM | 50 to 75% | A (A=Dmax>75%) |  | CC1(C)CN(CC2CCN(c3ccc4c(c3)C(=O)N([C@H]3CCC(=O)NC3=O)C4)CC2)CCN1C(=O)N1CCN2c3cc(-c4cccc(F)c4O)nnc3NCC2(C(F)(F)F)C1 (single isomer, unassigned) [Example 100]
12 | < 100 nM |  | > 1000 nM |  | B (B=50%<Dmax≤75%) | C (C=Dmax<50%) | CC1(C)CN(CC2CCN(c3ccc4c(c3)C(=O)N([C@H]3CCC(=O)NC3=O)C4)CC2)CCN1C(=O)N1CCN2c3cc(-c4cccc(F)c4O)nnc3NCC2(C(F)(F)F)C1 (single isomer, unassigned) [Example 101]
13 | < 100 nM | > 75% | < 100 nM |  |  | A (A=Dmax>75%) | CCC12CNc3nnc(-c4cc(F)cc(F)c4O)cc3N1CCN(C(=O)C1(F)CCC(CN3CCN(c4ccc5c(c4)C(=O)N([C@H]4CCC(=O)NC4=O)C5)CC3)CC1)C2 (single isomer, unassigned) [Example 102]
14 | < 100 nM |  | < 100 nM |  | A (A=Dmax>75%) | B (B=50%<Dmax≤75%) | CCC12CNc3nnc(-c4cc(F)cc(F)c4O)cc3N1CCN(C(=O)C1(F)CCC(CN3CCN(c4ccc5c(c4)C(=O)N([C@H]4CCC(=O)NC4=O)C5)CC3)CC1)C2 (single isomer, unassigned) [Example 103]
15 | < 100 nM | > 75% | < 100 nM | > 75% |  |  | CCC12CNc3nnc(-c4cccc(Cl)c4O)cc3N1CCN(C(=O)C1(F)CCN(CC3CCN(c4ccc5c(c4)C(=O)N([C@H]4CCC(=O)NC4=O)C5)CC3)CC1)C2 (single isomer, unassigned) [Example 106]
16 | < 100 nM | > 75% | 100 to 1000 nM |  |  | C (C=Dmax<50%) | CCC12CNc3nnc(-c4cccc(F)c4O)cc3N1CCN(C(=O)C1(F)CCN(CC3CCN(c4ccc5c(c4)C(=O)N([C@H]4CCC(=O)NC4=O)C5)CC3)CC1)C2 (single isomer, unassigned) [Example 107]
17 | < 100 nM |  | < 100 nM |  | A (A=Dmax>75%) | A (A=Dmax>75%) | CCC12CNc3nnc(-c4cccc(F)c4O)cc3N1CCN(C(=O)C1(F)CCN(CC3CCN(c4ccc5c(c4)C(=O)N([C@H]4CCC(=O)NC4=O)C5)CC3)CC1)C2 (single isomer, unassigned) [Example 108]
18 | < 100 nM | > 75% | < 100 nM | > 75% |  |  | CCC12CNc3nnc(-c4cc(F)cc(F)c4O)cc3N1CCN(C(=O)C1(F)CCN(CC3CCN(c4ccc5c(c4)C(=O)N([C@H]4CCC(=O)NC4=O)C5)CC3)CC1)C2 (single isomer, unassigned) [Example 109]
19 | < 100 nM |  | < 100 nM |  |  |  | CCC12CNc3nnc(-c4cc(F)cc(F)c4O)cc3N1CCN(C(=O)C1(F)CCN(CC3CCN(c4ccc5c(c4)C(=O)N([C@H]4CCC(=O)NC4=O)C5)CC3)CC1)C2 (single isomer, unassigned) [Example 110]
20 | < 100 nM | 50 to 75% | > 1000 nM | < 50% |  |  | CC12CNc3nnc(-c4cccc(F)c4O)cc3N1CCN(C(=O)C1(F)CCN(CC3CCN(c4ccc5c(c4)C(=O)N([C@H]4CCC(=O)NC4=O)C5)CC3)CC1)C2 (single isomer, unassigned) [Example 111]
21 | < 100 nM | > 75% | < 100 nM |  |  | A (A=Dmax>75%) | CC12CNc3nnc(-c4cc(F)cc(F)c4O)cc3N1CCN(C(=O)C1(F)CCN(CC3CCN(c4ccc5c(c4)C(=O)N([C@H]4CCC(=O)NC4=O)C5)CC3)CC1)C2 (single isomer, unassigned) [Example 112]
22 | < 100 nM |  | > 1000 nM |  | A (A=Dmax>75%) | C (C=Dmax<50%) | CC12CNc3nnc(-c4cc(F)cc(F)c4O)cc3N1CCN(C(=O)C1(F)CCN(CC3CCN(c4ccc5c(c4)C(=O)N([C@H]4CCC(=O)NC4=O)C5)CC3)CC1)C2 (single isomer, unassigned) [Example 113]
23 | < 100 nM | > 75% | < 100 nM | 50 to 75% |  |  | CC12CNc3nnc(-c4cccc(F)c4O)cc3N1CCN(C[C@H]1CC[C@H](CN3CCN(c4ccc5c(c4)C(=O)N(C4CCC(=O)NC4=O)C5)CC3)CC1)C2 (single isomer, unassigned) [Example 115]
24 | < 100 nM |  | < 100 nM |  |  |  | CC12CNc3nnc(-c4cccc(F)c4O)cc3N1CCN(C[C@H]1CC[C@H](CN3CCN(c4ccc5c(c4)C(=O)N(C4CCC(=O)NC4=O)C5)CC3)CC1)C2 (single isomer, unassigned) [Example 116]
25 | < 100 nM | > 75% | < 100 nM | 50 to 75% |  |  | CC12CNc3nnc(-c4cccc(F)c4O)cc3N1CCN(C[C@H]1CC[C@H](CN3CCN(c4ccc5c(c4)C(=O)N([C@H]4CCC(=O)NC4=O)C5)CC3)CC1)C2 (single isomer, unassigned) [Example 117]
26 | < 100 nM |  | < 100 nM |  |  |  | CC12CNc3nnc(-c4cccc(F)c4O)cc3N1CCN(C[C@H]1CC[C@H](CN3CCN(c4ccc5c(c4)C(=O)N([C@H]4CCC(=O)NC4=O)C5)CC3)CC1)C2 (single isomer, unassigned) [Example 118]
27 | < 100 nM | > 75% | < 100 nM | > 75% |  |  | C[C@@H]1C[C@H](CN2CCN(c3ccc4c(c3)C(=O)N([C@H]3CCC(=O)NC3=O)C4)CC2)C[C@H](C)N1C(=O)N1CCN2c3cc(-c4cccc(F)c4O)nnc3NCC2(C)C1 (single isomer, unassigned) [Example 120]
28 | < 100 nM |  | < 100 nM |  |  |  | C[C@@H]1C[C@H](CN2CCN(c3ccc4c(c3)C(=O)N([C@H]3CCC(=O)NC3=O)C4)CC2)C[C@H](C)N1C(=O)N1CCN2c3cc(-c4cccc(F)c4O)nnc3NCC2(C)C1 (single isomer, unassigned) [Example 121]
